Consider 46 compounds from ChEMBL document CHEMBL5126532, “Synthetic approaches and structural diversity of triazolylbutanols derived from voriconazole in the antifungal drug development” (Eur J Med Chem, 2022).

SMILES strings stand for the structures. ≈ marks a conversion by molar mass, not a printed value.

Broadly, the MIC80 is the lowest concentration that inhibits either 80% of growth or 80% of the strains tested, depending on the study. Low values mean greater potency, high ones weaker potency. What is called MIC is the least concentration at which growth counts as inhibited.

Holding throughout (assay type): functional
The test system of assay [1] is Candida albicans. The assay is described as follows: Antifungal activity against Candida albicans.
Assay [2] relates to Candida albicans. Description: Antifungal activity against Candida albicans assessed as inhibition of fungal growth incubated for 20 hrs.
In a further assay the test system is Candida parapsilosis. The assay is described as follows: Antifungal activity against Candida parapsilosis. To be noted: Lodderomyces parapsilosis.
The subject of assay [3] is Cryptococcus neoformans. The assay is described as follows: Antifungal activity against Cryptococcus neoformans TIMM 1855 by 96-well microplate method.
The subject of a further assay is Aspergillus flavus. Description: Antifungal activity against Aspergillus flavus SANK 18497 by 96-well microplate method.
For another assay, the system named is Aspergillus fumigatus. Description: Antifungal activity against Aspergillus fumigatus SANK 10569 by 96-well microplate method.
For assay [4], the system named is Candida albicans. Description: Antifungal activity against Candida albicans SANK 51486 by 96-well microplate method.
The next assay relates to Candida. The assay is described as follows: Antifungal activity against Candida spp.
Assay [5] deals with Cryptococcus neoformans. The assay is described as follows: Antifungal activity against Cryptococcus neoformans. To be noted: Cryptococcus neoformans; read-out: MIC.

For the compound `Cc1cccc(-c2cc(CO[C@H](C)[C@](O)(Cn3cncn3)c3ccc(F)cc3F)on2)c1`, the MIC80 in the assay on Candida albicans [1] turned out to be 0.0313 µg/mL (≈ 0.0711 µM).
For the compound `CC(C)COC(=O)OC[n+]1cnn(C[C@](O)(c2ccc(F)cc2F)[C@@H](C)N2CCN(c3ccc(-n4cnnn4)cc3)C2=O)c1.[I-]`, the minimal inhibitory concentration (MIC) with Candida albicans [2] came to 0.016 µg/mL.
`C[C@@H](OCc1cc(-c2c(F)c(F)c(F)c(F)c2F)no1)[C@](O)(Cn1cncn1)c1ccc(F)cc1F` showed an MIC80 in the assay on Candida albicans [1] of 0.0313 µg/mL (≈ 0.0606 µM).
As to `CC(C)CCC(=O)OC[n+]1cnn(C[C@](O)(c2ccc(F)cc2F)[C@@H](C)N2CCN(c3ccc(-n4cnnn4)cc3)C2=O)c1.[I-]`, the MIC in the assay with Candida albicans [2] amounted to 0.016 µg/mL.
Turning to `C[C@@H](N1CCN(c2ccc(-n3cnn(Cc4ccc(C(F)(F)F)cc4)c3=O)nc2)CC1)[C@](O)(Cn1cncn1)c1ccc(F)cc1F`, in the assay with Candida parapsilosis, the MIC stood at 4 µg/mL (≈ 6.1 µM).
As to `C[C@@H](OCc1cc(-c2cc(F)cc(F)c2)no1)[C@](O)(Cn1cncn1)c1ccc(F)cc1F`, the MIC80 against Candida albicans [1] was found to be 0.0313 µg/mL (≈ 0.0677 µM).
`C[C@@H](N1CCN(c2ccc(-n3cnn(Cc4cc(C(F)(F)F)cc(C(F)(F)F)c4)c3=O)cn2)CC1)[C@](O)(Cn1cncn1)c1ccc(F)cc1F` gave an MIC in the assay on Candida parapsilosis of 4 µg/mL (≈ 5.53 µM).
Consider `C[C@@H](OCc1cc(-c2ccc(F)c(Cl)c2)no1)[C@](O)(Cn1cncn1)c1ccc(F)cc1F`, for which, in the assay on Candida albicans [1], the MIC80 came to 0.0313 µg/mL (≈ 0.0654 µM).
Same read-out and setting: for `C[C@@H](OCc1cc(-c2cccc(F)c2)no1)[C@](O)(Cn1cncn1)c1ccc(F)cc1F` the value was 0.0313 µg/mL (≈ 0.0704 µM).
As to `C[C@@H](N1CCN(c2ccc(-n3cnnn3)cc2)C1=O)[C@](O)(Cn1c[n+](COC(=O)C(C)(C)C)cn1)c1ccc(F)cc1F.[I-]`, the MIC in the assay with Candida albicans [2] worked out at 0.016 µg/mL.
Take `C[C@@H](OCc1cc(-c2ccc(Cl)cc2F)no1)[C@](O)(Cn1cncn1)c1ccc(F)cc1F`: the MIC80 in the assay on Candida albicans [1] was found to be 0.0313 µg/mL (≈ 0.0654 µM).
For the compound `C[C@@H](OCc1cc(-c2ccc(F)cc2F)no1)[C@](O)(Cn1cncn1)c1ccc(F)cc1F`, the MIC80 in the assay on Candida albicans [1] amounted to 0.0313 µg/mL (≈ 0.0677 µM).
Same read-out and setting: the figure for `Cc1ccc(-c2cc(CO[C@H](C)[C@](O)(Cn3cncn3)c3ccc(F)cc3F)on2)cc1` is 0.0313 µg/mL (≈ 0.0711 µM).
For the compound `C[C@@H](OCc1cc(-c2cc(F)ccc2F)no1)[C@](O)(Cn1cncn1)c1ccc(F)cc1F`, the MIC80 with Candida albicans [1] came out at 0.0313 µg/mL (≈ 0.0677 µM).
As to `C[C@@H](S[C@H]1CO[C@H](/C=C/C=C/c2ccc(C#N)cc2F)OC1)[C@](O)(Cn1cncn1)c1cccc(F)c1F`, the MIC in the assay on Cryptococcus neoformans [3], in the assay with Aspergillus flavus, in the assay with Aspergillus fumigatus and with Candida albicans [4] was at most 0.008 µg/mL throughout.
For `C[C@@H](OCc1cc(-c2ccc(F)c(F)c2)no1)[C@](O)(Cn1cncn1)c1ccc(F)cc1F`, in the assay with Candida albicans [1], the MIC80 was 0.0313 µg/mL (≈ 0.0677 µM).
Still for that read-out and setting: the figure for `C[C@@H](OCc1cc(-c2ccccc2Cl)no1)[C@](O)(Cn1cncn1)c1ccc(F)cc1F` is 0.0313 µg/mL (≈ 0.0679 µM).
For `C[C@@H](N1CCN(c2ccc(-n3cnn(Cc4cc(C(F)(F)F)cc(C(F)(F)F)c4C(F)(F)F)c3=O)nc2)CC1)[C@](O)(Cn1cncn1)c1ccc(F)cc1F`, inhibition of growth against Candida parapsilosis (MIC) required 4 µg/mL (≈ 5.05 µM).
In the assay on Candida parapsilosis, `C[C@@H](N1CCN(c2ccc(-n3cnn(Cc4cccc(C(F)(F)F)c4)c3=O)cn2)CC1)[C@](O)(Cn1cncn1)c1ccc(F)cc1F` gave an MIC of 4 µg/mL (≈ 6.1 µM).
Still for that read-out and setting: for `C[C@@H](N1CCN(c2ccc(-n3cnn(Cc4cc(C(F)(F)F)cc(C(F)(F)F)c4C(F)(F)F)c3=O)cn2)CC1)[C@](O)(Cn1cncn1)c1ccc(F)cc1F` the value was 4 µg/mL (≈ 5.05 µM).
Consider `C[C@@H](S[C@H]1CO[C@H](/C=C/C=C/c2ccc(C#N)cc2F)OC1)[C@](O)(Cn1cncn1)c1ccc(F)cc1`, for which the minimal inhibitory concentration (MIC) with Cryptococcus neoformans [3], against Aspergillus flavus, with Aspergillus fumigatus and in the assay with Candida albicans [4] was at most 0.008 µg/mL each time.
On to `C[C@@H](OCc1cc(-c2ccc(Cl)cc2)no1)[C@](O)(Cn1cncn1)c1ccc(F)cc1F`, for which the MIC80 with Candida albicans [1] was 0.0313 µg/mL (≈ 0.0679 µM).
The same measure, in the same setting: for `C[C@@H](OCc1cc(-c2c(F)cc(F)cc2F)no1)[C@](O)(Cn1cncn1)c1ccc(F)cc1F` the value was 0.0313 µg/mL (≈ 0.0652 µM).
In the case of `CCC(=O)OC[n+]1cnn(C[C@](O)(c2ccc(F)cc2F)[C@@H](C)N2CCN(c3ccc(-n4cnnn4)cc3)C2=O)c1.[I-]`, in the assay with Candida albicans [2], the MIC worked out at 0.016 µg/mL.
Take `C[C@H](n1nnc(CCN2CCN(c3cccc(C(F)(F)F)c3)CC2)n1)[C@](O)(Cn1cncn1)c1ccc(F)cc1F`: the MIC with Candida and in the assay on Cryptococcus neoformans [5] was 0.25 µg/mL (≈ 0.433 µM) throughout.
Consider `C[C@@H](OCc1cc(-c2ccc(F)cc2Cl)no1)[C@](O)(Cn1cncn1)c1ccc(F)cc1F`, for which the MIC80 against Candida albicans [1] amounted to 0.0313 µg/mL (≈ 0.0654 µM).
`C[C@@H](OCc1cc(-c2ccc(C#N)cc2)no1)[C@](O)(Cn1cncn1)c1ccc(F)cc1F` registered an MIC80 in the assay with Candida albicans [1] of 0.0313 µg/mL (≈ 0.0693 µM).
`C[C@@H](OCc1cc(-c2ccc(OC(F)(F)F)cc2)no1)[C@](O)(Cn1cncn1)c1ccc(F)cc1F` displayed an MIC80 against Candida albicans [1] of 0.0313 µg/mL (≈ 0.0613 µM).
In turn, `C[C@@H](N1CCN(c2ccc(-n3cnn(Cc4cc(C(F)(F)F)cc(C(F)(F)F)c4)c3=O)nc2)CC1)[C@](O)(Cn1cncn1)c1ccc(F)cc1F` registered a minimum inhibitory concentration (MIC) against Candida parapsilosis of 4 µg/mL (≈ 5.53 µM).
Compound `C[C@@H](OCc1cc(-c2cccc(F)c2F)no1)[C@](O)(Cn1cncn1)c1ccc(F)cc1F` showed an MIC80 against Candida albicans [1] of 0.0313 µg/mL (≈ 0.0677 µM).
Still for that read-out and setting: the figure for `C[C@@H](OCc1cc(-c2ccc(Cl)c(F)c2)no1)[C@](O)(Cn1cncn1)c1ccc(F)cc1F` is 0.0313 µg/mL (≈ 0.0654 µM).
In the assay with Candida albicans [1], `C[C@@H](OCc1cc(-c2cc(F)c(F)c(F)c2F)no1)[C@](O)(Cn1cncn1)c1ccc(F)cc1F` had an MIC80 of 0.0313 µg/mL (≈ 0.0628 µM).
On to `C[C@@H](N1CCN(c2ccc(-n3cnnn3)cc2)C1=O)[C@](O)(Cn1c[n+](COC(=O)OC2COCOC2)cn1)c1ccc(F)cc1F.[I-]`, for which, in the assay on Candida albicans [2], the minimal inhibitory concentration (MIC) stood at 0.016 µg/mL.
Turning to `C[C@@H](OCc1cc(-c2cccc(Cl)c2)no1)[C@](O)(Cn1cncn1)c1ccc(F)cc1F`, the MIC80 against Candida albicans [1] is 0.0313 µg/mL (≈ 0.0679 µM).
Take `CC(=O)NCCOC(=O)OC[n+]1cnn(C[C@](O)(c2ccc(F)cc2F)[C@@H](C)N2CCN(c3ccc(-n4cnnn4)cc3)C2=O)c1.[I-]`: the MIC with Candida albicans [2] is 0.016 µg/mL.
As for `C[C@@H](OCc1cc(-c2ccccc2F)no1)[C@](O)(Cn1cncn1)c1ccc(F)cc1F`, in the assay on Candida albicans [1], the MIC80 stood at 0.0313 µg/mL (≈ 0.0704 µM).
Still for that read-out and setting: the figure for `C[C@@H](OCc1cc(-c2ccc(C(F)(F)F)cc2)no1)[C@](O)(Cn1cncn1)c1ccc(F)cc1F` is 0.0313 µg/mL (≈ 0.0633 µM).
In the assay with Candida parapsilosis, `C[C@@H](N1CCN(c2ccc(-n3cnn(Cc4ccc(OC(F)(F)F)cc4)c3=O)nc2)CC1)[C@](O)(Cn1cncn1)c1ccc(F)cc1F` yielded a minimal inhibitory concentration (MIC) of 4 µg/mL (≈ 5.96 µM).
Same read-out and setting: the figure for `C[C@@H](N1CCN(c2ccc(-n3cnn(Cc4ccc(C(F)(F)F)cc4)c3=O)cn2)CC1)[C@](O)(Cn1cncn1)c1ccc(F)cc1F` is 4 µg/mL (≈ 6.1 µM).
The compound `Cc1ccccc1-c1cc(CO[C@H](C)[C@](O)(Cn2cncn2)c2ccc(F)cc2F)on1` returned an MIC80 in the assay with Candida albicans [1] of 0.0313 µg/mL (≈ 0.0711 µM).
On the same count and under the same terms, for `C[C@@H](OCc1cc(-c2ccccc2)no1)[C@](O)(Cn1cncn1)c1ccc(F)cc1F` the value was 0.0313 µg/mL (≈ 0.0734 µM).
In the assay with Candida parapsilosis, `C[C@@H](N1CCN(c2ccc(-n3cnn(Cc4cccc(C(F)(F)F)c4)c3=O)nc2)CC1)[C@](O)(Cn1cncn1)c1ccc(F)cc1F` gave a minimum inhibitory concentration (MIC) of 4 µg/mL (≈ 6.1 µM).
Turning to `C[C@@H](N1CCN(c2ccc(-n3cnn(Cc4ccc(OC(F)(F)F)cc4)c3=O)cn2)CC1)[C@](O)(Cn1cncn1)c1ccc(F)cc1F`, the MIC with Candida parapsilosis was 4 µg/mL (≈ 5.96 µM).
Take `CC(C)C(=O)OC[n+]1cnn(C[C@](O)(c2ccc(F)cc2F)[C@@H](C)N2CCN(c3ccc(-n4cnnn4)cc3)C2=O)c1.[I-]`: the MIC in the assay on Candida albicans [2] was 0.016 µg/mL.
As for `C[C@@H](OCc1cc(-c2c(F)cccc2F)no1)[C@](O)(Cn1cncn1)c1ccc(F)cc1F`, in the assay on Candida albicans [1], the MIC80 is 0.0313 µg/mL (≈ 0.0677 µM).
Compound `CC(C)n1ncn(-c2ccc(N3CCN([C@H](C)[C@](O)(Cn4cncn4)c4ccc(F)cc4F)CC3)nc2)c1=O` registered an MIC in the assay with Candida parapsilosis of 0.25 µg/mL (≈ 0.463 µM).
